Source: US12485106B2, “Methods of treating fibrotic liver diseases or conditions with indeglitazar” (PLEIOGENIX INC., priority 2023, dated 2025)
“Also recorded” adds a separate entry of the source.

Key:
[1] = Parallel Artificial Membrane Permeability-Blood Brain Barrier Assay (PMBBB-096); assay type: in vitro ADME; settings: compared to promazine HCl (high permeability control)
Description: Indeglitazar was evaluated using the Parallel Artificial Membrane Permeability-Blood Brain Barrier Assay (PMBBB-096; BioAssay Systems, Hayward, CA).

PPARδ = molecular target: T1, PPARδ (Homo sapiens, UniProt Q03181); settings: cited from earlier work
T1 sequence (Q03181 1-441): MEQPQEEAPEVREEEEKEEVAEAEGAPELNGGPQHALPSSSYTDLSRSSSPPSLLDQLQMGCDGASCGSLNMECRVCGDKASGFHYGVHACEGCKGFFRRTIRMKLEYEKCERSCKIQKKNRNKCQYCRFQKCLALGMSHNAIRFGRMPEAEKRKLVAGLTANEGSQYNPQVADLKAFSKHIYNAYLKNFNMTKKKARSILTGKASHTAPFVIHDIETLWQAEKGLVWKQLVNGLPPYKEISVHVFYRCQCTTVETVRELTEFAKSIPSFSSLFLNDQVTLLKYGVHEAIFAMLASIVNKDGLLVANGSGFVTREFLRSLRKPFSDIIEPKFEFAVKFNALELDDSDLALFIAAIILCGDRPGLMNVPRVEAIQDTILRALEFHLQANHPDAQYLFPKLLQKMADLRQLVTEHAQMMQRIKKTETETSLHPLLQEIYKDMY

[2] = system: mouse model of human alcoholic hepatitis; assay: AH (NIAAA) mouse model, 8-week efficacy and safety study, alone and with prednisolone
Description: Mice were fed with the ethanol diet for four weeks, followed by 4 weeks of intervention (8 weeks total treatment).
Livers were collected at the end-point from all mice and weighed. Liver samples were processed for histology to assess steatosis, inflammatory infiltrates and fibrosis. Briefly, liver tissue was fixed in 4% paraformaldehyde and paraffin-embedded, sectioned into 5 m thickness, and stained with hematoxylin-eosin (H&E), Oil-Red O staining, and Masson's trichrome staining.
Safety testing: The safety of indeglitazar treatment was assessed by body weight measurements and full necropsy at endpoint. Mice were terminated from the experiment by isoflurane anesthesia and blood was collected by a cardiac bleed into EDTA-treated tubes, and then centrifuged to obtain plasma to conduct clinical chemistry including full liver and renal toxicology panel. A portion of the liver was analyzed for liver triglycerides and cholesterol levels by biochemical assays. […] Hearts were weighted and fixed in 10% NBF, paraffin embedded, and sectioned into 4-μm thick slices. H&E staining was used to investigate myocardial cell hypertrophy, and ventricle diameters by microscopy.

PPARα = molecular target: T2, PPARα (Homo sapiens, UniProt Q07869); settings: cited from earlier work
T2 sequence (Q07869 1-468): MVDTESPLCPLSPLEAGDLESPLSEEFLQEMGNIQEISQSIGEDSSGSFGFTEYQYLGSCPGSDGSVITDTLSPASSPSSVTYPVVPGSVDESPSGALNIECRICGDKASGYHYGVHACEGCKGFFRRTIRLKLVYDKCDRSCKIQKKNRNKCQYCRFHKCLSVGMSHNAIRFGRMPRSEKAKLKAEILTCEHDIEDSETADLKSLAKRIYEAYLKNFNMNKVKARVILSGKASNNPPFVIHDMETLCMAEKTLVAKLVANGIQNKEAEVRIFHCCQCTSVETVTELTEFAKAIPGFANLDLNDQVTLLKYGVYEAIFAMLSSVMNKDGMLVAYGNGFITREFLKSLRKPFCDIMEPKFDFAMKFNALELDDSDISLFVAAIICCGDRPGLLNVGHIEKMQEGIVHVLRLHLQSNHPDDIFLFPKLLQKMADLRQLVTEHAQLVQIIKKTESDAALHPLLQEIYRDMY

[3] = system: mouse model of human alcoholic hepatitis; assay: AH mouse model (chronic and binge ethanol feeding plus LPS), dose-response study; assay type: in vivo; settings: for effect on body weight: 10, 30 and 50 mg/kg/day oral gavage, male and female mice
Text: Mouse model generation and treatment. The AH mouse model was generated as described in Shah et al. through chronic and binge ethanol feeding plus lipopolysaccharides (LPS) administration to provide a second hit to increase liver damage (Shah R et al., Oxid Med Cell Longev, (2018), 2018:9630175; Lamas-Paz A et al., World J Gastroenterol, (2018), 24:5063-75). This model is easy to implement and recapitulates the major features of human AH including marked ALT elevation, liver steatosis, and fibrosis (O'Beirne J., Dig Dis Sci., (2020), 65:920-1). A total of 60 mice, were used at a 50:50 male/female ratio to provide a comprehensive representation applicable in treating the general population. C57BL6 mice (6-8-week-old) were fed Lieber-DeCarli '82 rodent liquid diet (LDC) ad libitum for 5 days to acclimatize them to tube feeding. On day 6, mice were treated according to Table 1. Ethanol-fed groups were allowed free access to LDC diet containing 5% (vol/vol) ethanol for 11 days, and control groups were pair-fed with the LDC diet only. Indeglitazar was administered by oral gavage starting from day 6. On day 12, mice were given a single dose of 5 g/kg/bw of EtOH by oral gavage, and LPS (2 mg/kg/bw) by intraperitoneal injection (IP), pair-fed mice were fed isocaloric maltose dextrin and all mice were euthanized 6 h later.
Analysis and tests: Mice were treated for 11 days; body weights were measured before and during administration. Plasma was analyzed for ALT, AST, and GGT. A full necropsy was performed at the end-point together with liver histology to assess steatosis, and inflammatory infiltrates. Briefly, liver tissue was fixed in 10% neutral buffered formalin and paraffin-embedded, sectioned into […] thickness, and stained with hematoxylin-eosin (H&E) and Oil-Red O staining for evaluation of histopathological changes. Stained liver slices were analyzed under a bright-field microscope using the histological scoring system for nonalcoholic fatty liver disease (Kleiner D L et al., Hepatology, (2005), 41:1313-21). The remaining liver tissue was analyzed for liver triglycerides and cholesterol levels by biochemical assays.
The AH mouse model was generated as described in Shah et al. through chronic and binge ethanol (EtOH) feeding plus lipopolysaccharide (LPS) administration, to provide a second insult, to increase liver damage (Bertola A et al., Nat Protoc, (2013), 8:627-637; Takahashi Y et al., (2017), 313-339; Shah R et al., Oxid Med Cell Longev, (2018), 2018:9630175). This model recapitulates the major features of human AH, including marked ALT and AST elevation, liver steatosis, and fibrosis (Lucey M R et al., N Engl J Med., (2009), 360:2758-2769). For a dose-response study, a total of 60 (12 per group, 50:50 male/female ratio) C57BL6 mice (6-8-weeks old) were fed Lieber-DeCarli '82 rodent liquid diet (LDC) ad libitum, for 5 days, to acclimatize them to tube feeding. On days 6-11, mice were fed the LCD diet plus ethanol (5% vol:vol), and treated with indeglitazar (10 mg/kg, 30 mg/kg, or 50 mg/kg, oral gavage). On day 12, mice were given a single dose of EtOH (5 g/kg/body weight) by oral gavage and LPS (2 mg/kg/body weight) by ip injection; pair-fed mice were fed isocaloric maltose dextrin and all mice were euthanized 6 h later.

[4] = indeglitazar 50 mg/kg, prednisolone 10 mg/kg, vs EtOH-treated vehicle control
[5] = indeglitazar 50 mg/kg, prednisolone 10 mg/kg, vs ethanol-treated vehicle control
[6] = indeglitazar 50 mg/kg, prednisolone 10 mg/kg, vs vehicle+EtOH
[7] = indeglitazar 50 mg/kg/day, prednisolone 10 mg/kg/day, vs ethanol-treated vehicle control
[8] = indeglitazar 50 mg/kg/day, prednisolone 10 mg/kg/day, vs ethanol-treated vehicle control, listed as indeglitazar

## COc1ccc(S(=O)(=O)n2cc(CCC(=O)O)c3cc(OC)ccc32)cc1 [Indeglitazar, 3-[5-methoxy-1-(4-methoxybenzenesulfonyl)-1H-indol-3-yl]-propanoic acid]
[1]
  ability to cross the blood-brain barrier: ~15%
PPARδ
  agonism towards PPARδ: partial agonism
[2]; indeglitazar 50 mg/kg, prednisolone 10 mg/kg, data not shown
  liver histopathology: steatosis, hepatocellular karyomegaly, and ballooning: reduced significantly
[2]; [4]
  effect on liver hydroxyproline: significant decrease
  effect on plasma adiponectin: significant increase
[2]; [5]
  effect on ALT: significant decreases
  effect on AST: significant decreases
  effect on plasma TGFβ: significant decrease
  effect on total bilirubin: decrease; also recorded: significant decreases
[2]; [6]
  decrease of liver TG: 28%
  decrease of plasma TGFβ: 66%
  decrease of plasma TNF-α: 50%
  increase of adiponectin: 31%
[2]; indeglitazar 50 mg/kg, prednisolone 10 mg/kg, vs vehicle+EtOH, P<0.0001
  decrease of hydroxyproline: 31%
[2]; [7]
  effect on body weight: no significant effect
  effect on gamma-glutamyl transferase (GGT): no significant effect
  effect on heart weight (actual): no significant effect
  effect on heart weight divided by body weight×100: no significant effect
[2]; [8]
  effect on body weight: Neither EtOH (vs no EtOH vehicle control), indeglitazar, or prednisolone had a significant effect
  effect on heart weight (actual): Neither EtOH (vs no EtOH vehicle control), indeglitazar, or prednisolone had a significant effect
[2]; indeglitazar 50 mg/kg/day, prednisolone 10 mg/kg/day, vs ethanol-treated vehicle control, male and female mice
  effect on overall survival: significant increase; also recorded: significantly increased
PPARα
  agonism against PPARα: full agonism
[3]; 50 mg/kg, vs vehicle+EtOH
  effect on liver triglycerides: significantly reduced
[3]; 50 mg/kg, vs vehicle+EtOH, P<0.0001
  reduction of ALT activity: 60%
[3]; 50 mg/kg, vs vehicle+EtOH, P<0.004
  reduction of AST: 49%
[3]; 50 mg/kg, vs vehicle+EtOH, P<0.03
  reduction of liver TG: 35%
[3]; 10, 30, 50 mg/kg/day
  effect on liver total cholesterol: no significant effect
[3]; 10, 30 and 50 mg/kg oral gavage, vs EtOH-treated vehicle control
  effect on food intake: Neither EtOH (vs no EtOH vehicle control) or indeglitazar had a significant effect
[3]; vs ethanol-treated vehicle control
  effect on body weight: no significant effect
[3]; vs ethanol-treated vehicle control, listed as indeglitazar
  effect on body weight: Neither EtOH (vs no EtOH vehicle control) or indeglitazar had a significant effect; also recorded: no significant effect
[3]; 10 and 50 mg/kg, vs ethanol-treated vehicle control
  effect on AST: significant decreases
[3]; all three doses (10, 30, 50 mg/kg), vs ethanol-treated vehicle control
  effect on ALT: significant decrease
